Measurements published in the NIST ThermoML archive (doi:10.1021/je034225b).

Columns and labels:
[1] = xn = mol fraction of the nth substance listed; details: for surface tension liquid-gas: 297 K; for mass density: 100 kPa, Liquid, Pycnometric method
[2] = 297 K

CNC [dimethylamine] + O
[1]
Details | surface tension liquid-gas [mN/m]
x1 = 0.002 | 68.4
x1 = 0.003 | 65.7
x1 = 0.004 | 65.8
x1 = 0.006 | 64.7
x1 = 0.008 | 62.8
x1 = 0.01 | 61.8
x1 = 0.013 | 60.4
x1 = 0.016 | 58.4
x1 = 0.025 | 56.1
x1 = 0.034 | 53.2
x1 = 0.043 | 51
x1 = 0.052 | 49.1
x1 = 0.061 | 48.1
x1 = 0.071 | 47.8
x1 = 0.091 | 42.4
x1 = 0.112 | 40.4
x1 = 0.135 | 38.9
x1 = 0.158 | 36.8
x1 = 0.184 | 35.3
x1 = 0.21 | 33.7

[1], 298.15 K
Details | mass density [kg/m3]
x1 = 0.001 | 998
x1 = 0.002 | 994
x1 = 0.004 | 988
x1 = 0.008 | 987
x1 = 0.016 | 984
x1 = 0.025 | 974
x1 = 0.034 | 969
x1 = 0.043 | 967
x1 = 0.091 | 941
x1 = 0.146 | 918
x1 = 0.21 | 888

O=S(=O)(O)O [sulfuric acid] + O
[1]
Details | surface tension liquid-gas [mN/m]
x1 = 0.001 | 71.6
x1 = 0.003 | 71.4
x1 = 0.006 | 71.2
x1 = 0.008 | 71.9
x1 = 0.026 | 72.4
x1 = 0.052 | 73.1
x1 = 0.09 | 74
x1 = 0.125 | 74.7
x1 = 0.18 | 75.2
x1 = 0.25 | 73.6
x1 = 0.35 | 72.3
x1 = 0.48 | 69.4

mass density [kg/m3], [1]
Details | 298.15 K | 571.15 K
x1 = 0.001 | 998 | –
x1 = 0.003 | 1005 | 1005
x1 = 0.006 | 1017 | –
x1 = 0.008 | 1024 | –
x1 = 0.026 | 1085 | –
x1 = 0.052 | 1156 | –
x1 = 0.09 | 1253 | –
x1 = 0.125 | 1328 | –
x1 = 0.18 | 1422 | –
x1 = 0.25 | 1528 | –
x1 = 0.35 | 1622 | –
x1 = 0.48 | 1725 | –

O [water]
Details | surface tension liquid-gas [mN/m]
[2] | 70.4
